Paper PMC12040169 (PLOS Biology, 2025)

test: in vitro; details: human, hela cells, % viability

| SMILES | viability at 28.5 h, 10 µM |
| --- | --- |
| COc1ccccc1-c1cccc(C2CCCN(C(=O)CCCc3ccccc3)C2)n1 (stereo not drawn) [CBK286217] | 100% |
| O=C(c1ccccc1)N1CCCC(c2nccnc2-c2cccc(C(F)(F)F)c2)C1 (stereo not drawn) [CBK286218] | 99.9% |
| O=C(CCc1ccccc1)N1CCC(c2cccc(Cc3cccc(F)c3)n2)CC1 [CBK286219] | 97.5% |
| COc1ccc(CC(=O)N2CCCC2c2cccc(Cc3cccc(F)c3)n2)cc1 (stereo not drawn) [CBK286220] | 108% |
| O=C(Cc1cccnc1)N1CCC(c2cccc(Cc3ccc(C(F)(F)F)cc3)n2)CC1 [CBK286223] | 92.8% |
| COc1ccc(CC(=O)N2CCCC(c3nc(C)c4c(n3)N(CC3CC3)CCC4)C2)cc1 (stereo not drawn) [CBK286228] | 100% |
| COc1ccccc1Cc1cccc(C2CCCN2C(=O)CCc2ccccc2)n1 (stereo not drawn) [CBK286229] | 108% |
| O=C(COc1ccccc1)N1CCCC1c1cccc(Cc2ccc(F)cc2)n1 (stereo not drawn) [CBK286230] | 102% |
| O=C(Cc1ccc(F)cc1)N1CCCC1c1cccc(Cc2ccc(F)cc2)n1 (stereo not drawn) [CBK286234] | 94.7% |
| O=C(COc1ccc(F)cc1)N1CCCC1c1cccc(Cc2ccc(F)cc2)n1 (stereo not drawn) [CBK286235] | 99.3% |
| COc1ccccc1Cc1cccc(C2CCN(C(=O)c3ccccc3)CC2)n1 [CBK286236] | 101% |
| Cc1cccc(Cc2cccc(C3CCCN(C(=O)c4ccc(=O)[nH]c4)C3)n2)c1 (stereo not drawn) [CBK286243] | 95.9% |
| CCn1ncc(S(=O)(=O)N2CCCC(c3cccc(Cc4cccc(C)c4)n3)C2)c1C (stereo not drawn) [CBK286244] | 97.7% |
| O=C(CCc1ccc(F)cc1)N1CCC(CC(=O)N2CCN(c3ccccc3)CC2)CC1 [CBK286245] | 108% |
| CCC(=O)N1CCCC1c1nc(C)c2c(n1)N(Cc1ccc(F)cc1)CCC2 (stereo not drawn) [CBK286247] | 104% |
| Cc1nc(C2CCCN2C(=O)CC2CCCC2)nc2c1CCCN2Cc1ccccn1 (stereo not drawn) [CBK286252] | 105% |
| CN(C)c1ncc(-c2ccccc2)c(C2CCCN2Cc2ccc3ncccc3c2)n1 (stereo not drawn) [CBK286256] | 77.6% |
| Cc1nc(C2CCCN(C(=O)C3CCC3)C2)nc2c1CCCN2Cc1ccccc1 (stereo not drawn) [CBK286257] | 78.2% |
| CCCn1cc(S(=O)(=O)N2CCCC2c2ccc(Nc3cccc(C)n3)cn2)c(C)n1 (stereo not drawn) [CBK286258] | 77.6% |
| CN(Cc1ccc2ncccc2c1)C(=O)CC1CCN(CCc2ccccc2)CC1 [CBK286261] | 108% |
| Cc1cc(Cc2ccccc2Cl)cc(C2CCCN(CC(=O)N(C)C)C2)n1 (stereo not drawn) [CBK286262] | 87.6% |

| SMILES | viability at 28.5 h, 10 µM |
| --- | --- |
| COc1ccc(C2CCCN2C(=O)CC2CCN(C(=O)CC3CCCCC3)CC2)cc1 (stereo not drawn) [CBK286263] | 102% |
| COc1cccc(C2CCCN2C(=O)CC2CCN(C(=O)CC3CCCCC3)CC2)c1 (stereo not drawn) [CBK286264] | 98.4% |
| CN(CC1COc2ccccc2O1)C(=O)CC1CCN(C(=O)CC2CCCCC2)CC1 (stereo not drawn) [CBK286265] | 92.7% |
| O=C(CC1CCN(C(=O)c2ccc3nsnc3c2)CC1)N1CCN(c2ccccc2)CC1 [CBK286266] | 85.9% |
| O=C(CC1CCCC1)N1CCC(c2cc(CCOc3cccc(C(F)(F)F)c3)[nH]n2)C1 (stereo not drawn) [CBK286267] | 89.4% |
| O=C1C(C2CCN(Cc3ccc4ncccc4c3)CC2)CC=CCN1Cc1ccccc1 (stereo not drawn) [CBK286269] | 108% |
| CN(C)C(=O)C1(Cc2ccc(-c3cccs3)cc2)CCN(C(=O)c2ccccc2)CC1 [CBK286270] | 85.5% |
| O=C(CCC1CCCCC1)N1CCC(c2n[nH]cc2C(=O)N2CCc3ccccc3C2)CC1 [CBK286271] | 95.4% |
| COc1ccccc1OCc1cc(C)c(C(=O)N2CCN(C)CC2c2ccccc2)o1 (stereo not drawn) [CBK286273] | 89.3% |
| CCCNC(=O)C1(Cc2ccccc2-c2ccccc2)CCN(C(=O)c2ccccc2)CC1 [CBK286275] | 89.3% |
| CN(Cc1ccccc1)CC(O)c1ccc2c(c1)CCCN2C(=O)c1ccccc1F (stereo not drawn) [CBK286278] | 88.2% |
| O=C1CCCC[C@@H]2[C@@H](N1)[C@H](c1ccccc1)CN2Cc1ccnc2ccccc12 [CBK286280] | 102% |
| O=C(c1ccco1)N1CCC(c2nnc(-c3ccccc3)c(-c3ccccc3)n2)CC1 [CBK286282] | 86.4% |
| COc1ccccc1-c1nnc(NCc2ccc3c(c2)OCO3)nc1-c1ccccc1OC [CBK286284] | 96.4% |
| COc1ccc([C@H]2CN(Cc3ccccc3)[C@@H]3CCN(C(=O)Cc4ccccc4)C[C@H]23)cc1 [CBK286285] | 108% |
| O=C(Nc1cccc(CCc2ccncc2)c1)C1CC(=O)N(Cc2ccncc2)C1 (stereo not drawn) [CBK286287] | 89.6% |
| CC(=O)NC1(c2ccccc2)CCN(C(=O)Nc2ccccc2-c2ccccc2)CC1 [CBK286288] | 94.9% |
| O=C(c1ccccc1)N1C[C@H](c2ccc(F)cc2)[C@H]2CN(CCc3ccccc3)CC[C@H]21 [CBK286291] | 98.2% |
| COc1cccc(CN2CC[C@@H]3[C@H](C2)[C@@H](c2ccc(F)cc2)CN3C(=O)c2ccccc2)c1 [CBK286292] | 107% |
| O=C(Cc1ccc(-c2ccccc2)cc1)NCc1nnc(-c2cccs2)o1 [CBK286295] | 94.3% |
| O=C(NCc1nnc(-c2cccs2)o1)C1c2ccccc2Oc2ccccc21 [CBK286297] | 94.8% |

| SMILES | viability at 28.5 h, 10 µM |
| --- | --- |
| Cc1ccc(-c2nnc(CNC(=O)c3ccccc3-c3ccccc3)o2)s1 [CBK286298] | 89.2% |
| Cc1ccc(-c2nnc(CNC(=O)C(c3ccccc3)c3ccccc3)o2)s1 [CBK286299] | 102% |
| Cc1ccc(-c2nnc(CNC(=O)c3cccc(-c4ccc(F)cc4)c3)o2)s1 [CBK286300] | 109% |
| Cn1ncc(Cl)c1C1CCCCCN1S(=O)(=O)c1ccc2[nH]c(=O)[nH]c(=O)c2c1 (stereo not drawn) [CBK286303] | 102% |
| O=C(CN1CCC(O)(Cn2cnc3ccccc32)CC1)c1ccc(-c2ccccc2)cc1 [CBK286306] | 86.8% |
| O=C1NC2(CCN(C(=O)CC3c4ccccc4Oc4ccccc43)CC2)Nc2ccccc21 [CBK286307] | 98.8% |
| CC(C(=O)N1CCC2(CC1)NC(=O)c1ccccc1N2)(c1ccccc1)c1ccccc1 [CBK286308] | 108% |
| COc1cc2c(cc1OC)C1c3ccccc3NC(c3ccccc3F)N1CC2 (stereo not drawn) [CBK286311] | 98.9% |
| O=C(Cc1ccc(-c2ccccc2)cc1)N1CCc2nc3ccccc3c(=O)n2CC1 [CBK286312] | 97.2% |
| O=C(c1ccco1)N1CCc2c([nH]c3ccccc23)C12CCN(Cc1ccccc1)CC2 [CBK286313] | 91% |
| O=C(CC1c2ccccc2Oc2ccccc21)N1CCc2nc3ccccc3c(=O)n2CC1 [CBK286314] | 92.4% |
| COc1ccccc1-c1ccc(CNC(Cc2ccsc2)c2nccs2)cc1 (stereo not drawn) [CBK286315] | 86.7% |
| CCN(CC)C(=O)CN1C(=O)[C@H]2CCCN2C(=O)c2ccccc21 [CBK286319] | 95.5% |
| OC(CN1CCC(O)(c2ccc3c(c2)OCO3)CC1)c1ccc2c(c1)CCC2 (stereo not drawn) [CBK286326] | 99.6% |
| CC(=O)c1cc(C(=O)Nc2ccc(Oc3ccc4c(c3)OCO4)cc2)cs1 [CBK286327] | 92.5% |
| Cc1ccccc1C1(O)CCN(CC(O)c2ccc3c(c2)CCC3)CC1 (stereo not drawn) [CBK286329] | 88% |
| Cc1cccc(C2(O)CCN(CC(O)c3ccc4c(c3)CCC4)CC2)c1 (stereo not drawn) [CBK286330] | 95.3% |
| COc1ccc(C2(O)CCN(CC(O)c3ccc(C(C)(C)C)cc3)CC2)cc1 (stereo not drawn) [CBK286333] | 90.6% |
| COc1ccc(C2(O)CCN(CC(O)c3ccc4c(c3)CCC4)CC2)cc1 (stereo not drawn) [CBK286334] | 95.9% |
| COc1ccccc1C1(O)CCN(Cc2ccccc2OCc2ccc3c(c2)OCO3)CC1 [CBK286337] | 80.4% |
| COc1cccc(C(O)CN2CCC3(CC2)CC(O)c2cc(C)ccc2O3)c1 (stereo not drawn) [CBK286338] | 88.4% |

| SMILES | viability at 28.5 h, 10 µM |
| --- | --- |
| COc1cccc(C(O)CN2CCC3(CC2)CC(O)c2cc(Cl)c(C)cc2O3)c1 (stereo not drawn) [CBK286342] | 99.3% |
| Cc1[nH]c(=O)[nH]c(=O)c1CC(=O)N1CCCCC1CN1CCCCC1 (stereo not drawn) [CBK286344] | 98.8% |
| OC(CN1CCC2(CC1)CC(O)c1ccccc1O2)c1ccc(-c2ccccc2)cc1 (stereo not drawn) [CBK286347] | 101% |
| Cc1ccc(N2CCCC2=O)cc1S(=O)(=O)NC(c1ccccc1)c1ccccc1 [CBK286348] | 85.6% |
| Oc1ccc2c(c1)C(O)CC1(CCN(CC(O)c3ccc(-c4ccccc4)cc3)CC1)O2 (stereo not drawn) [CBK286351] | 91.3% |
| COc1ccccc1-c1ccc(NS(=O)(=O)c2ccc3c(c2)CCC(=O)N3)cc1 [CBK286353] | 82.5% |
| COc1ccc(N2CCN(CC(O)c3c[nH]c4cc(OC)ccc34)CC2)cc1 (stereo not drawn) [CBK286355] | 96.1% |
| Cc1cccnc1C(Cc1ccsc1)NS(=O)(=O)c1ccc2[nH]c(=O)[nH]c(=O)c2c1 (stereo not drawn) [CBK286356] | 111% |
| O=c1[nH]c(=O)c2cc(S(=O)(=O)Nc3ccc(N4CCCCCC4)cc3)ccc2[nH]1 [CBK286361] | 81.4% |
| Cc1cc2ccccc2n1CCCNS(=O)(=O)c1ccc2[nH]c(=O)[nH]c(=O)c2c1 [CBK286362] | 96% |
| CCn1c(C)cc2cc(NS(=O)(=O)c3ccc4[nH]c(=O)[nH]c(=O)c4c3)ccc21 [CBK286363] | 104% |
| O=C1CCc2cc(S(=O)(=O)Nc3ccccc3-c3ccccc3)ccc2N1 [CBK286366] | 92.6% |
| O=C1CCc2cc(S(=O)(=O)Nc3ccccc3Cc3ccccc3)ccc2N1 [CBK286369] | 87% |
| COc1cccc(-c2cccc(NS(=O)(=O)c3ccc4c(c3)CCC(=O)N4)c2)c1 [CBK286372] | 105% |
| O=c1[nH]c(=O)c2cc(S(=O)(=O)Nc3ccccc3-c3ccccc3)ccc2[nH]1 [CBK286374] | 102% |
| CC1CCCN(c2ccc(NS(=O)(=O)c3ccc4[nH]c(=O)[nH]c(=O)c4c3)cc2)C1 (stereo not drawn) [CBK286376] | 97.5% |
| O=c1[nH]c(=O)c2cc(S(=O)(=O)N3CCN(c4ccccn4)CC3)ccc2[nH]1 [CBK286379] | 112% |
| O=c1[nH]c(=O)c2cc(S(=O)(=O)N3CCCC(c4ccccc4)C3)ccc2[nH]1 (stereo not drawn) [CBK286381] | 106% |
